Experimental data taken from patent publication US20130195926A1, “MODULATION OF NITRIC OXIDE SIGNALING TO NORMALIZE TUMOR VASCULATURE” (The General Hospital Corporation, priority 2007, published 2013).
Entries after “also recorded” stand apart in the source; their conditions may differ.

What was measured:
U87MG tumors [1] = assay: Microvascular permeability of U87 tumors by intravital microscopy with tetramethylrhodamine-BSA; type: in vivo, mice; details: L-NPA 20 mg/kg daily i.p. vs saline, cranial window
Method: To lower NO production from all NOS isoforms in the gliomas, mice received a pan-NOS inhibitor NG-Monomethyl-L-arginine monoacetate (L-NMMA) (Alexis Corp.) or non-active control compound D-NMMA (Alexis Corp.) at the rate of 7 mg/day by a constant release micro-osmotic pump (Model 1002, Alzet Osmotic Pumps, Durect Corp.) (Kashiwagi, S., et al. 2005 J. Clin. Invest. 115, 1816-1827). The micro-osmotic pumps were implanted in the back of the animals one day before the implantation of tumors. […]
The effective vascular permeability (P) was determined by SPFM as described previously (Fukumura, D., et al. 2001 Proc Natl Acad Sci USA 98, 2604-2609). In brief, the fluorescence intensity of the tumor tissue was intermittently measured for 20 min after the injection of tetramethylrhodamine-labeled bovine serum albumin (10 mg/ml, 0.1 ml per 25 g body weight). Permeability was calculated as P=(1−HT) V/S [1/(I0−Ib)*dI/dt+1/K], where I is the average fluorescence intensity of the whole image, I0 is the initial fluorescence intensity, and Ib is the background fluorescence intensity, HT is hematocrit, V and S are the total volume and surface area of vessels within the tissue volume covered by the surface image, respectively, and K is the time constant of BSA plasma clearance (Fukumura, D., et al. 2001 Proc Natl Acad Sci USA 98, 2604-2609).

GL261 tumors = assay: Vessel morphology and function of GL261 tumors in the cranial window; type: in vivo; details: L-NPA vs saline, SCID mice
Method: FIGS. 7A-E show NOS expression in GL261 tumors and the effect of an nNOS selective inhibitor on vessel morphology and function in GL261 tumors. (A) NOS expression in GL261 tumors grown in the cranial window in SCID mice. Five micron paraffin block sections were immunostained using antibodies to eNOS, nNOS, iNOS or non-specific mouse IgG. The bar indicates 100 μm. Different from U87MG tumors, GL261 tumor cells express all three isoforms of NOS, especially strong expression of eNOS. (B) MPLSM microangiographies of GL261 tumors treated with saline and L-NPA. The bar indicates 200 μm. (C-D) Quantification of 3-D vessel density (C) and diameter (D) using MPLSM image stack and an automated image analysis system. N=6 each. (E) Microvascular permeability in GL261 tumors treated with saline (N=6) and L-NPA (N=6) was measured by intravital microscopy using tetramethylrhodamine-BSA. […]
(§1) Angiogenesis and vessel morphology were determined in U87 and GL261 tumors grown in the cranial windows by intravital microscopy using multiphoton laserscanning microscopy (MPLSM) or single photon fluorescence microscopy (SPFM) when tumors reached about 7 mm^2. […] Using MPLSM, five locations with 200-μm thick imaging stack were recorded for each tumor. […]
The effective vascular permeability (P) was determined by SPFM as described previously (Fukumura, D., et al. 2001 Proc Natl Acad Sci USA 98, 2604-2609). […]

U87MG tumors [2] = assay: Vessel morphology of U87 tumors in the cranial window by intravital microscopy; type: in vivo, mice; details: L-NPA 20 mg/kg daily i.p. vs saline, cranial window
Method: Recombination activating gene 1 (Rag-1^−/−) mice backcrossed to C57BL/6 background or severe combined immunodeficiency (SCID) mice, bred and maintained in an gnotobiotic animal facility, were used. To obtain source tumor tissue, U87 tumor cells in culture (1×10^6 cells) were injected subcutaneously into Rag-1^−/− or SCID mice matching the recipient mice. When the tumor reached about 8 mm in diameter, it was excised after euthanasia and a small piece (about 1 mm^3) of viable tumor tissue was implanted into a cranial window or subcutaneously into the calf area of the right hindlegs of the mice as previously described (Kashiwagi, S., et al. 2005 J. Clin. Invest. 115, 1816-1827; Kozin, S. V., et al. 2001 Cancer Research 61, 39-44). All animal procedures were carried oat following the Public Health Service Policy on Humane Care of Laboratory Animals and approved by the Institutional Animal Care and Use Committee of Massachusetts General Hospital. […]
as §1
Vascular parameters such as functional vessel density (the total length of perfused microvessels per unit area) and vessel diameter were analyzed by tracing each vessel segment using NIH image 1.63 as described elsewhere (Kashiwagi, S., et al. 2005 J. Clin. Invest. 115, 1816-1827). Tissue distribution of NO was visualized using MPLSM and the NO-sensitive fluorescence probe 4,5-diaminofluorescein (DAF-2) (0.5 mg i.v. Daiichi Pure Chemicals Co. Ltd) as described previously (Kashiwagi, S., et al. 2005 J. Clin. Invest. 115, 1816-1827). NO converts DAF-2 to 4,5-diaminofluorescein triazolium (DAF-2T) increasing fluorescence by a factor of 200. The DAF-2 associated fluorescence images were captured 60 min after i.v. injection. […]

10T1/2 cells = assay: cGMP production in cultured 10T1/2 cells; type: cell-based; details: 100 μM
Method: FIGS. 13A-C show the role of the NO-sGC-cGMP pathway in perivascular cell recruitment and migration. (A) In bar graph form, cGMP production in cultured 10T1/2 cells in response to NO donor or PDE5 inhibitor. (B) In bar graph form, the migration of 10T1/2 cells in a transwell assay. 10T1/2 cell migration was assessed using Falcon HTS FluoroBlok inserts with 1 μm pores. GFP-expressing 10T1/2 cells were inoculated in the inserts, and HUVECs were inoculated in the outer well. Percent area of transwell filter covered by migrated 10T1/2 cells was determined. Medium only indicates no HUVECs in the outer well. ODQ, T-1032, Sildenafil, or Sildenafil+L-NMMA were added to the medium. *P<0.05 vs. control (HUVEC). (C) Images for transmigrated GFP-10T1/2 cells at the back side of the Fluoroblock insert after 10 hours with control vs. T-1032 treatment.
cGMP levels were examined in 10T1/2 cells following treatments of an NO donor DETANONOate or an inhibitor for phosphodiesterase 5 (PDE5), an enzyme which degrades cGMP.

MCaIV tumors = assay: Intravital microscopy of MCaIV tumors under iNOS inhibition; type: in vivo, mice; details: 1400 W 10 mg/kg/day by osmotic pump vs saline, 7 days
Description: FIGS. 12A-E show the effect of iNOS inhibition in MCaIV tumors and blood vessel morphology and function in MCaIV tumors. (A) Fluorescence immunohistochemistry image of iNOS expression (green), F4/80 positive macrophages (red) and DAPI stained nuclei (blue) in MCaIV tumors grown in the mammary fat pad. The bar indicates 50 μm. (B-C) MPLSM images of MCaIV tumors grown in αSMA^P-GFP mice treated with saline control (B) or an iNOS inhibitor 1400 W (C). Functional blood vessels were contrast-enhanced by i.v. injection of tetramethylrhodamine-dextran (red). αSMA-positive perivascular cells were visualized by GFP fluorescence (green). The bars indicate 100 μm. (D-E) MCaIV tumors grown in αSMAP-GFP mice were treated with saline (control) or iNOS inhibitor (1400 W) for 7 days. (D) Perivascular cell coverage. (N=4, each). (E) Vascular permeability (N=7, each). Data are mean±SEM. *p<0.05 vs. control.
Breast cancer cells in MCaIV murine mammary tumor model express iNOS similar to many human tumors, in contrast to the U87MG glioma model, in which tumor cells predominantly express neuronal NOS (nNOS). MCaIV tumors grown orthotopically in the mammary fat pad express iNOS and to a much lesser extent eNOS as determined by real time RT-PCR. […] Inhibition of iNOS would eliminate the majority of non-vascular NO production. […]

## CCCN=C(N)NCCC[C@H](N)C(=O)O [L-NPA, NG propyl-L-arginine]
U87MG tumors [1]
  vascular permeability: decreased
GL261 tumors
  tumor vasculature (vessel morphology and function): did not improve; also recorded: did not alter
U87MG tumors [2]
  vessel density: increased

## NCCN(CCN)/[N+]([O-])=N/O [DETANONOate]
10T1/2 cells
  cGMP level: increased

## CC(=N)NCc1cccc(CN)c1 [1400 W, N-(3-(Aminomethyl)benzyl) acetamidine]
MCaIV tumors
  vascular permeability: significantly lower
MCaIV tumors; αSMAP-GFP mice
  perivascular cell coverage: significantly increased
